From patent publication US11576901B2, “Methods for treating viral infection” (HOWARD UNIVERSITY, priority 2016, dated 2023) come the findings set out here.

The test system of experiment [1] is HIV1 modified pNL4-3.Luc.R-E-virus. Briefly: Western assay of HIV p24 gag expression in infected CEM T cells. The format is cell-based. The settings on record: Western assay with HIV p24 antibody, FIG. 4. The text has this: The ability of a compound in accordance with General Formula 1, including derivatives in accordance with General Formulae 1-1 to 1-20, or pharmaceutically acceptable salts thereof, to inhibit the expression of at least a portion of a virus genome containing an IRES sequence can be also be determined by assessing the expression of a native protein within a viral genome. In some embodiments, the ability of a compound or pharmaceutically acceptable salt to inhibit expression of native protein can be assessed by using antibodies for a protein normally expressed from the virus genome. For example, HIV p24 gag is a protein normally expressed by HIV1 that can be detected using the HIVI p24 antibody. Accordingly, compounds in accordance with General Formula 1, including derivatives in accordance with any of General Formulae 1-1 to 1-20, or pharmaceutically acceptable salts thereof, can be assessed for the ability to inhibit proliferation of the HIV1 by infecting CEM T cells with the HIV1 modified pNL4-3.Luc.R-E-virus and assessing the expression of HIV p24 gag with the HIV p24 antibody. […]
A compound or salt may be wrongly classified as capable of inhibiting expression of at least a portion of a virus genome containing an IRES sequence due to unequal loading of proteins within an assay. […] In some embodiments, equivalent protein loading can be assessed by ponceau staining. […]

A further experiment concerns HSV-1. Briefly: Plaque forming assay, Hep-2 cell monolayers infected with HSV-1. The format is cell-based. The settings on record: Hep-2 cells, 100 μM. The procedure: The ability of a virus to infect cells can be assessed using a plaque assay. In a plaque assay, an infected cell culture is grown under a nutrient gel. During culturing, the virus being study infects cells and replicates. However, the spread of virus to other cells is limited by the overlaying nutrient gel. As such, replicated virus released from one infected cell can only infect neighboring cells. The spread of virus amongst neighboring cells creates a plaque that can be visualized by staining. By counting the visible plaques, the amount of plaque forming units (pfu) per mL can be determined. If cells treated with a compound display a reduced amount of pfu compared to cells not treated with the compound after being infected with same amount of viral particles, then the reduction in pfu would have to be result of the ability of the […] virus. Thus, the ability of a compound in accordance with General Formula 1, including derivatives in accordance with any of General Formulae 1-1 to 1-20, to inhibit the ability of HSV-1 to proliferate can be assessed with a plaque assay.
Hep-2 cell monolayers were placed in well plates. The plated Hep-2 cells were treated with either DSMO as a control, 100 μM SD-29 or 100 μM SD29-12. A total of 6 well plates were prepared for each treatment condition. To each treated well plate an HSV-1 infecting solution comprising 1 mL of supernatants containing of the same amount of serially diluted HSV-1 particles were added. Accordingly, the treated well plates were infected with infection solutions containing the same amount of HSV-1 particles. After adsorption for 2 hours, the medium was removed and the treated cells were washed twice with serum-free DMEM and overlaid with phenol-free DMEM containing 5% FCS, 0.5% low-melting point agarose (GIBCO), and 1% penicillin-streptomycin. After either 0, 6, 12, 24 hours, the plaques present in each treated well plate were stained red and the number of plaques presented counted. Table 1 reports the mean plaque forming unit (pfu) determined for each treated well plate after averaging the number of pfu from the different plates receiving the same treatment.

Turning to `Nn1c(S)nnc1-c1ccc(F)cc1` [SD-29], in experiment [1], the “expression of HIV p24 gag” value is recorded as “does inhibit expression”. Further, the “mean plaque forming unit (pfu)” value amounted to 0 pfu with HSV-1 (0 hpi), 0 pfu in the experiment on HSV-1 (6 hpi), 100 pfu with HSV-1 (12 hpi) and 180000 pfu in the experiment on HSV-1 (24 hpi). In the experiment on HSV-1 (Table 1 and FIG. 7), the “number of pfu compared to DMSO control (in words)” value was “reduced number of pfu compared to control”.
